The numbers were not newly measured in patent publication US20160310758A1, “SYSTEMS AND METHODS FOR PHOTOACTIVATING A PHOTOSENSITIZER APPLIED TO AN EYE” (Avedro, Inc., priority 2015, published 2016), which cites them from elsewhere.

In one data set the test system is bacteria. To be noted: D2O by itself, without photosensitizer; Skladnev et al. 1996.
For data set [1] the following is noted: non-ionic permeability enhancer in riboflavin formulations.

For the compound `[2H]O[2H]` [D2O, deuterated water], in the data set on bacteria, the killing of bacteria result is on record as “does not kill bacteria”. For “Polyoxyethylene (9) lauryl ether [Polidocanol]”, the HLB number entry in data set [1] was “approximately 13.6”.
